# Assay results from publication PMC11801715, “Activating PKC-ε induces HIV expression with improved tolerability” (PLOS Pathogens, 2025).
# What was measured:
# [1] = biological target: PKC-α (Homo sapiens, UniProt P17252); test: Z'-LYTE kinase activity assay; assay type: biochemical; details: ATP at Kmapp, 2 μM peptide substrate; read-out: IC50 for classical PKC isoforms, PKC-α
# Text: (§1) In this assay, phosphorylation of a synthetic FRET-peptide substrate protects the peptide from cleavage by the development reagent and prevents disruption of the FRET signal.
# [2] = biological target: PKC-β1 (Homo sapiens, UniProt P05771); test: Z'-LYTE kinase activity assay; assay type: biochemical; details: ATP at Kmapp, 2 μM peptide substrate; read-out: IC50 for classical PKC isoforms, PKC-β1
# Text: as §1
# [3] = biological target: PKC-β2 (Homo sapiens, UniProt P05771); test: Z'-LYTE kinase activity assay; assay type: biochemical; details: ATP at Kmapp, 2 μM peptide substrate; read-out: IC50 for classical PKC isoforms, PKC-β2
# Text: as §1
# [4] = biological target: PKC-γ (Homo sapiens, UniProt P05129); test: Z'-LYTE kinase activity assay; assay type: biochemical; details: ATP at Kmapp, 2 μM peptide substrate; read-out: IC50 for classical PKC isoforms, PKC-γ
# Text: as §1
# [5] = biological target: PKC-δ (Homo sapiens, UniProt Q05655); test: Z'-LYTE kinase activity assay; assay type: biochemical; details: ATP at Kmapp, 2 μM peptide substrate; read-out: IC50 for novel PKC isoforms, PKC-δ
# Text: as §1
# [6] = biological target: T1, PKC-ε (Homo sapiens, UniProt Q02156); test: Z'-LYTE kinase activity assay; assay type: biochemical
# T1 sequence (Q02156 1-737): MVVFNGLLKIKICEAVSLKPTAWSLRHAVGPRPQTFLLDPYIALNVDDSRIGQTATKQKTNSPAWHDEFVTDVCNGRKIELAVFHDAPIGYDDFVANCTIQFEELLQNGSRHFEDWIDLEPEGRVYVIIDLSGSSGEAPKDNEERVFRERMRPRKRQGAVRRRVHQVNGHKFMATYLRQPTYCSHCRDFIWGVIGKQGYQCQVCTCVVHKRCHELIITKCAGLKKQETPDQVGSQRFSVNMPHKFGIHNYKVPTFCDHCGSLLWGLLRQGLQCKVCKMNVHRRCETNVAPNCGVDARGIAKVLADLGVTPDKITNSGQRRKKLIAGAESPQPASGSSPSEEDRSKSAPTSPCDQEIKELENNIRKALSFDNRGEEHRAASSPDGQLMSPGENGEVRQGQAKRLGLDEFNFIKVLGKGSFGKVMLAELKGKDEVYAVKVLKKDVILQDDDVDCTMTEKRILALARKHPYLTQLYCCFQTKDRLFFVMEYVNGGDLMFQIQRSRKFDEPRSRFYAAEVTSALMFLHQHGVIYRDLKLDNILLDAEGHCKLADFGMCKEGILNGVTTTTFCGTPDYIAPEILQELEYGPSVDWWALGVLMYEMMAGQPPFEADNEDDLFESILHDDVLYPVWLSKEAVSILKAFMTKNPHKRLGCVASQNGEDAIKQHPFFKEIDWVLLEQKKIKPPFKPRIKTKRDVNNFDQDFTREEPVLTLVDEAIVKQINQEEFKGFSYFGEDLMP
# Text: as §1
# [7] = biological target: PKC-η (Homo sapiens, UniProt P24723); test: Z'-LYTE kinase activity assay; assay type: biochemical; details: ATP at Kmapp, 2 μM peptide substrate; read-out: IC50 for novel PKC isoforms, PKC-η
# Text: as §1
# [8] = biological target: PKC-θ (Homo sapiens, UniProt Q04759); test: Z'-LYTE kinase activity assay; assay type: biochemical; details: ATP at Kmapp, 2 μM peptide substrate; read-out: IC50 for novel PKC isoforms, PKC-θ
# Text: as §1
# [9] = system: classical and novel PKC isoforms; test: Estimated PKC inhibition in cell culture from Z'-LYTE IC50 and free fraction; assay type: biochemical; details: 5 µM, 46% free in cell culture media
# Text: as §1
# [10] = Free fraction in cell culture media; assay type: in vitro ADME
# [11] = system: latent HIV in total CD4+ T cells; test: microbe, parasite or virus in culture; assay type: cell-based, HIV-1; details: inhibitor 5 μM with DMSO, no agonist
# Experimental: Peripheral blood mononuclear cells and CD4^+ T cells used for evaluating PKC agonist and inhibitor molecules were isolated from leukopaks of selected participants as described previously. Isolated CD4^+ T cells (5×10^6 cells/well) were added to 24-well tissue culture plates in 2.5 mL of RPMI medium containing 100 nM each of elvitegravir and efavirenz. Cells were stimulated with DMSO (vehicle control) or the indicated concentrations of PKC agonist molecules. Cells were pretreated with PKC isoform inhibitors (Selleck Chemicals) for 1 hour before addition of PKC agonist at indicated concentrations and maintained at 37 °C, 5% CO2 for 3 days. Cell supernatants from each well were analyzed using the Cobas […] system for quantification of HIV-1 RNA using the HIV-1 test v2.0 kit (Roche Diagnostics).
# Sequence of PKC-θ (Q04759 whole entry, canonical isoform): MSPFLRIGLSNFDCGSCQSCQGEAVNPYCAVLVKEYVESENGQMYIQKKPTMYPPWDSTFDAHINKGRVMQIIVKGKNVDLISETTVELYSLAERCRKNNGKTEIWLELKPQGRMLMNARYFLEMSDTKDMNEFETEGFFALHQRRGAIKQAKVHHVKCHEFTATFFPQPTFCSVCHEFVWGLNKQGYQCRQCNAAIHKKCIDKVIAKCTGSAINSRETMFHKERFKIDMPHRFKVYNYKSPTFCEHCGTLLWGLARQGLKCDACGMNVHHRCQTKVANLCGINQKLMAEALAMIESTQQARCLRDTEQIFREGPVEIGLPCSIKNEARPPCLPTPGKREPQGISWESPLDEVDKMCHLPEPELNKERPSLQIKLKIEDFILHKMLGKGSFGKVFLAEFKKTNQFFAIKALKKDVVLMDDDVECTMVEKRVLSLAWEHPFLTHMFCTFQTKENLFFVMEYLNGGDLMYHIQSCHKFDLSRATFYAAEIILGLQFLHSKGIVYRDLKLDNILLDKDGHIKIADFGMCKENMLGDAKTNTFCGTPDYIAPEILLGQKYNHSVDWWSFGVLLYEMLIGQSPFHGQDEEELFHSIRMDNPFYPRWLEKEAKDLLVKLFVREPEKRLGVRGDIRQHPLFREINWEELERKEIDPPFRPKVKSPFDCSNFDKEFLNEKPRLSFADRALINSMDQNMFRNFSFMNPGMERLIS
# Sequence of PKC-η (P24723 whole entry, canonical isoform): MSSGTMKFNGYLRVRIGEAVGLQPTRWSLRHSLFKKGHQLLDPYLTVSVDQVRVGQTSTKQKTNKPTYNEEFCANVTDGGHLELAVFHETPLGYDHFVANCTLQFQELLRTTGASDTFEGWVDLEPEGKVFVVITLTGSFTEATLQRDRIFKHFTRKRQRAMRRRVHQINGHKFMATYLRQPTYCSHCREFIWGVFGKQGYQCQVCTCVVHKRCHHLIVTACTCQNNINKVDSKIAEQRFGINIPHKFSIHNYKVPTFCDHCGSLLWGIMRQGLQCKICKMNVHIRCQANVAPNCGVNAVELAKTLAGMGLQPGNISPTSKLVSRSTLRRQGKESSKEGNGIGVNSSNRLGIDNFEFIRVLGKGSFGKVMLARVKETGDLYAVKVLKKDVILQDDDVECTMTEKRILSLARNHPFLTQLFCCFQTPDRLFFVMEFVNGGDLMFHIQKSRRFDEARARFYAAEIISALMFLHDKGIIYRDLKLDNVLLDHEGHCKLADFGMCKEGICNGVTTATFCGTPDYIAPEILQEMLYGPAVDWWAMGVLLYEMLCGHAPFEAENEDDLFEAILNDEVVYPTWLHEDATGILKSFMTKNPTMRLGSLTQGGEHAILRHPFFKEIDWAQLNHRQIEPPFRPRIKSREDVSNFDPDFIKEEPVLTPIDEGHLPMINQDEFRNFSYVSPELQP
# Sequence of PKC-β2 (P05771 1-673 isoform P05771-2): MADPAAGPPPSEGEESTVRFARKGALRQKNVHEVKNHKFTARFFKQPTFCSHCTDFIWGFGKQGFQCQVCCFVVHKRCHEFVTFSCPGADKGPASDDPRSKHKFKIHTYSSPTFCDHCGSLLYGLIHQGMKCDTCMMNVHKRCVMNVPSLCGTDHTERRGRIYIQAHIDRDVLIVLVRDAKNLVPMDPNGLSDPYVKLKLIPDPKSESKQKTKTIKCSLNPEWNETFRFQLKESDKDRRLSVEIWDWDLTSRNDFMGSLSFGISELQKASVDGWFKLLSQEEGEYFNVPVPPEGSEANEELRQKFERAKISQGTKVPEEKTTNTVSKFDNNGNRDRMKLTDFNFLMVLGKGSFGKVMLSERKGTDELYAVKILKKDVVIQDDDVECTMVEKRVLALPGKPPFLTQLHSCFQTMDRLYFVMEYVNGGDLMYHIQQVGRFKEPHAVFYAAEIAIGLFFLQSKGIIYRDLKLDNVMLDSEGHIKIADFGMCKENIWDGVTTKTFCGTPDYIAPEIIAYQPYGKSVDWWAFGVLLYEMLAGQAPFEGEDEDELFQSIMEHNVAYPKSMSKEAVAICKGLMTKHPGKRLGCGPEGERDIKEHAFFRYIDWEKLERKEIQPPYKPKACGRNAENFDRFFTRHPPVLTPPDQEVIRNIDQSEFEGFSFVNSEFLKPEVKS
# Sequence of PKC-β1 (P05771 whole entry, canonical isoform): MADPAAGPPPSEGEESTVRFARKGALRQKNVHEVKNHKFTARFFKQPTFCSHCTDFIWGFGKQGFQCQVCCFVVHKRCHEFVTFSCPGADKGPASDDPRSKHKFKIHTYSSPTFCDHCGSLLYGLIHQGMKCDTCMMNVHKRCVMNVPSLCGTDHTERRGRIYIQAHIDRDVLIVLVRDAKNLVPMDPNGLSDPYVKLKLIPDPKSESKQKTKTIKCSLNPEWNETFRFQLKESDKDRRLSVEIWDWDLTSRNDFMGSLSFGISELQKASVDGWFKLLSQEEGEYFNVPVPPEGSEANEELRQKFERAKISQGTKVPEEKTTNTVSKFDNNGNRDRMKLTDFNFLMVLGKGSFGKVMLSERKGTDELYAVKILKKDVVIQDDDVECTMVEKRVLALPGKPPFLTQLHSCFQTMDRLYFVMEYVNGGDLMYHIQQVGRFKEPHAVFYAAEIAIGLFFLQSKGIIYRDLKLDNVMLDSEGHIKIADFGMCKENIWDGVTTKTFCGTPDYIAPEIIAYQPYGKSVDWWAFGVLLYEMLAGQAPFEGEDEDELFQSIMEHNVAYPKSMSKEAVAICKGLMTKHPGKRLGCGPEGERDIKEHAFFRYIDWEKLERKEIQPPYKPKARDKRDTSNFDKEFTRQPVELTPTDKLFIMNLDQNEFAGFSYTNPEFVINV
# Sequence of PKC-δ (Q05655 whole entry, canonical isoform): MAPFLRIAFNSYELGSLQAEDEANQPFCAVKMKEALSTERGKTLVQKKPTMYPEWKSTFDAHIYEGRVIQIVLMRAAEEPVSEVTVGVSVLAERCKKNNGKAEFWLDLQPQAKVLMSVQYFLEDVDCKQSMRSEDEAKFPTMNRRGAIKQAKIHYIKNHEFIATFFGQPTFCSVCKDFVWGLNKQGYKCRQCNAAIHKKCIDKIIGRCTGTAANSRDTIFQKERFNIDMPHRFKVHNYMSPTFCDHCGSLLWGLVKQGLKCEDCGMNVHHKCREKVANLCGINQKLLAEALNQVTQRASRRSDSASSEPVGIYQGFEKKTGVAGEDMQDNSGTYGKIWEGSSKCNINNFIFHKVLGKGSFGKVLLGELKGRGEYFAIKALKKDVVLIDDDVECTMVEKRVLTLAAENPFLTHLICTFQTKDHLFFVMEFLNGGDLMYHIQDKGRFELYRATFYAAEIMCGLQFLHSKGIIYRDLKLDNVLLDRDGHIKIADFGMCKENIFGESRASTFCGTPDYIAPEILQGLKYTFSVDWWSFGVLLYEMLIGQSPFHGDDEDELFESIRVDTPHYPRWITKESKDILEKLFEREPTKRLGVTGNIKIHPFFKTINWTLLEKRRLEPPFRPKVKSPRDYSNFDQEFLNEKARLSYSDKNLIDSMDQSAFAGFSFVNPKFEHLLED
compound,measurement,setting,value
CN(C)CCCn1cc(C2=C(c3c[nH]c4ccccc34)C(=O)NC2=O)c2ccccc21 [Gӧ-6850],IC50,[1],2.53 nM
same,IC50,[2],0.457 nM
same,IC50,[3],0.331 nM
same,IC50,[4],2.18 nM
same,IC50,[5],9.63 nM
same,inhibition at 5 µM,"[6]; 5 µM, 46% free in cell culture media, read-out: estimated inhibition of PKC-ε",70%
same,IC50,"[6]; ATP at Kmapp, 2 μM peptide substrate, read-out: IC50 for novel PKC isoforms, PKC-ε",67.6 nM
same,IC50,[7],11.3 nM
same,IC50,[8],3 nM
same,"estimated inhibition of all classical and novel isoforms, except PKC-ε",[9],> 90%
same,free in cell culture media,[10],46%
same,"HIV RNA Fold∆ over DMSO, Geomean",[11],1.2 fold
